Measured values: patent EP0684818B1, “METHOD OF REVERSING RESISTANCE OF HIV-1 STRAINS TO ZIDOVUDINE” (priority 1993, dated 1994)
In brackets after ≈: the same amount, converted by molar mass. Several values for one entry are separate records, joined by “and”; a condition that tells them apart may be missing. Equal entries are not always repeated. Where two headings read alike, the source gives them in different places.

Assays:
[1] = test system: HIV isolates from the patient; assay: Sensitivity of HIV isolates from the patient to antiviral compounds (p24 antigen production in co-culture with PHA-stimulated donor lymphocytes); type: cell-based, HIV-1; conditions: for IC50: mutations I135T, Q207E, T215F, K219Q, 50% inhibition of p24 antigen production, repeated experiment nos.
Experimental: A standard HIV-1 isolation from fresh lymphocytes and fresh plasma was performed at several time points (two months (60 days) before the start of therapy, 1 month (30 days) and 4 months (120 days) after start of the therapy).
Plasma or lymphocytes from the patient were co-cultured with 3·10^6 PHA stimulated (phytohemagglutinin, Sigma, St. Louis, Mo., USA) HIV-1 negative donor lymphocytes. Cultures were performed in a 5% CO2 atmosphere at 37°C. Medium was replaced every 3 to 4 days. When cell death occured, fresh PHA-stimulated donor lymphocytes were added. Every 3 to 4 days, the cultures were monitored for cytopathic effect and for the presence of HIV-1 p24 antigen in the supernatant. Cultures were followed during 5 weeks. A sample was considered positive for virus if the concentration of p24 antigen in the supernatant of the co-culture (determined by a p24 antigen capture test) exceeded 1000 pg per milliliter on a single determination or > 200 pg per milliliter on two consecutive determinations. Supernatants of positive isolates were aliquoted and frozen at -70°C.
(§1) An aliquot of a positive isolate was co-cultured with several cultures of PHA-stimulated donor lymphocytes. Serial dilutions of the antiviral compound (α-[(2-nitrophenyl)-amino]-2,6-dichlorobenzeneacetamide (Co. I) or zidovudine) were added to the cultures. Cultures were performed in a 5% CO2 atmosphere at 37°C. Medium and drugs were replaced every 3 to 4 days. When cell death occured, fresh PHA-stimulated donor lymphocytes were added. The cultures were monitored for cytopathic effect and for the presence of p24 antigen in the supernatant. When p24 levels produced in the controls (without antiviral compound) exceeded 1000 pg per milliliter, a p24 antigen test was performed on all cultures treated with antivirals The concentration of antiviral compound that was needed to inhibit 50% of p24 antigen production of the controls, was calculated (IC50). The sensitivity of the isolates obtained from the patient was determined on several occasions at different times (experiment nos.). The nucleotide sequence of the reverse transcriptase was determined in order to identify mutations selected by exposure of the retrovirus to Co. I. The results obtained thus far are shown in table 1.

Wild-type Strain IIIB = assay: Sensitivity of wild-type HIV-1 strain to antiviral compounds (p24 antigen production in PHA-stimulated donor lymphocytes); type: cell-based; conditions: 50% inhibition of p24 antigen production, repeated experiment nos.
Experimental: as §1

[2] = isolate after four months of Co. I therapy, novel mutation Y181C
[3] = isolate obtained two months before the therapy switch

Row | Compound | sensitivity of the HIV-1 isolate (in words) [1, 2] | sensitivity of the HIV-1 isolate (in words) [1, 3] | IC50 ([1]; patient isolate at time 120 days after start of Co. I therapy (400 mg t.i.d., po), Y181C) [µg/mL] | IC50 ([1]; patient isolate at time -60 days (two months before start of Co. I therapy)) | IC50 (Wild-type Strain IIIB) | IC50 (Wild-type Strain IIIB; Human immunodeficiency virus 1, IIIB, Lymphocyte, read-out: IC50) [µg/mL]
1 | NC(=O)C(Nc1ccccc1[N+](=O)[O-])c1c(Cl)cccc1Cl (stereo not drawn) [Co.I, α-[(2-nitrophenyl)amino]-2,6-dichlorobenzeneacetamide] | resistant | sensitive | >10 | 0.041 µg/mL and 0.07 µg/mL and 0.073 µg/mL and 0.054 µg/mL | – | –
2 | Cc1cn([C@H]2C[C@H](N=[N+]=[N-])[C@@H](CO)O2)c(=O)[nH]c1=O [zidovudine, 3'-azido-3'-deoxythymidine] | acquired again significant sensitivity | resistant | – | – | 0.001 µg/mL and 0.0008 µg/mL | 0.0011 (≈ 4.12 nM)
